The target in this assay is T1, hEag1 (Kv10.1) (Homo sapiens, UniProt O95259).
T1 construct: gene KCNH1
T1 sequence (O95259 1-989): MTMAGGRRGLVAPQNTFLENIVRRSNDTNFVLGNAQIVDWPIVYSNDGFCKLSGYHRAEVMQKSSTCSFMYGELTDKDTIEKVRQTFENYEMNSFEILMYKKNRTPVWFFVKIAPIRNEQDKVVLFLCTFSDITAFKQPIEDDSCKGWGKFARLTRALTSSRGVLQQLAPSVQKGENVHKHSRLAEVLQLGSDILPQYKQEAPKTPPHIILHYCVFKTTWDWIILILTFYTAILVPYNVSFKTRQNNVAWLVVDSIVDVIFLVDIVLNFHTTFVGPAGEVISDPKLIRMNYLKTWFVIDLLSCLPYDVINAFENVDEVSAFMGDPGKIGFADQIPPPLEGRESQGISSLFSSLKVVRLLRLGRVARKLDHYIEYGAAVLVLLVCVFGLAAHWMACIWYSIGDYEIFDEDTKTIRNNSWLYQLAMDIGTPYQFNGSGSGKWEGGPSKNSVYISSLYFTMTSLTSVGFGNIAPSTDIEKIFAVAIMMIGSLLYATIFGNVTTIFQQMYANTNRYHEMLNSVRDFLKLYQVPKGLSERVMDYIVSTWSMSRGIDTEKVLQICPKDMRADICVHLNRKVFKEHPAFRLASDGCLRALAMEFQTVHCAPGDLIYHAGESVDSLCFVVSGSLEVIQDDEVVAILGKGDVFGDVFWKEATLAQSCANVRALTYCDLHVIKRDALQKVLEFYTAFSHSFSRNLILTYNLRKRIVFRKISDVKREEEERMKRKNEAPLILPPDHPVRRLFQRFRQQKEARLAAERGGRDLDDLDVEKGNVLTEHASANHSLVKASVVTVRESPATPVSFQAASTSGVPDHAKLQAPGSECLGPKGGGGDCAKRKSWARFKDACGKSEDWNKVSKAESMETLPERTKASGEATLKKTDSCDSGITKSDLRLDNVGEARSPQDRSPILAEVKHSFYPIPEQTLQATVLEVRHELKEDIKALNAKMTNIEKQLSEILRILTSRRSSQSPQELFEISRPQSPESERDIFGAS
Briefly: whole-cell patch clamp of the endogenous current in SaOS-2 cells, six-dose concentration-response. It counts as cell-based.

pIC50: −log10 of the molar value.

In the case of `COc1ccc(CCN2CCC(Nc3nc4ccccc4n3Cc3ccc(F)cc3)CC2)cc1` [astemizole], the negative logarithm of the IC50 (pIC50) was ~6.87.

Source of the values: publication PMC9504018, “The hEag1 K^+ Channel Inhibitor Astemizole Stimulates Ca^2+ Deposition in SaOS-2 and MG-63 Osteosarcoma Cultures” (International Journal of Molecular Sciences, 2022).
